According to patent publication US20220370416A1, “COMPOUNDS AND METHODS FOR TARGETED DEGRADATION OF KRAS” (Arvinas Operations, Inc., priority 2020, published 2022):

What was measured:
HiBit-KRAS^G12C [1] = biological target: T1, HiBit-KRAS^G12C (Homo sapiens, UniProt P01116, G12C); assay: HiBit degradation assay in SW1573 HiBit-KRas^G12C cells; format: cell-based; parameters: expressed in transfected cells; host or cells: SW1573 (clone E6), modified pcDNA3.1 vector, TK promoter; settings: 24 hours
T1 sequence (P01116 1-186 isoform P01116-2 G12C limits assumed): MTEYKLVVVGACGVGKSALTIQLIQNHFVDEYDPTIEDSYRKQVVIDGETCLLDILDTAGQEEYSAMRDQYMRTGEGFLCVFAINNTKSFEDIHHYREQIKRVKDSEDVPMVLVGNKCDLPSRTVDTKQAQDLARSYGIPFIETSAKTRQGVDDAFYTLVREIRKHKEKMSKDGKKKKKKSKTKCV
How it was run: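 SW1573 cells stably expressing N-terminally HiBit-tagged KRAS G12C, under the TK promoter, were treated 24 h at 37 °C with 10 μM to 20 nM compound in 0.1% or 0.5% DMSO. Residual HiBit luminescence normalised to DMSO and fitted with a 4-parameter model for DC50 and Dmax. Points with ≥50% viability loss (alamar blue) excluded.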

HiBit-KRAS^G12C [2] = biological target: T1, HiBit-KRAS^G12C; assay: HiBit degradation assay in MiaPaCa-2 HiBit-KRas^G12C cells; format: cell-based; settings: 24 hours; for Dmax: MIA PaCa-2, MiaPaCa-2 HiBit-KRas^G12C cells, maximum degradation; for DC50: MiaPaCa-2 HiBit-KRas^G12C cells
Experimental: Reagents. SW1573 (CRL-2170) and MiaPaCa-2 (CRL-1420) cells were purchased from ATCC. Both cell lines are […] for the G12C mutation in KRAS. SW1573 cells were cultured in DMEM+F12+Glutamax (+Sodium Bicarbonate, +sodium pyruvate, Thermofisher scientific, #10565) supplemented with 10% FBS (Thermofisher scientific, #2060357) and 1% Antibiotic-Antimycotic (Thermofisher scientific, #15240096). MiaPaCa-2 cells were cultured in DMEM+Glutamax media (Thermofisher scientific, #10566) supplemented with 10% FBS (Thermofisher scientific, #2060357) and 1% Antibiotic-Antimycotic (Thermofisher scientific, #15240096). For degradation assays, 384 well plates were purchased from Corning (Corning® CellBIND® 384-well Flat Clear Bottom Black Polystyrene Microplates, Low Flange, #3770). Gambogic acid was purchased from Selleckchem (#S2448). Alamar blue was purchased from Thermofisher scientific (A50101) and used according to manufacturer instructions. The Nano-Glo® HiBit Lytic Detection System and Nano-Glo® HiBit Blotting System were purchased from Promega (#N3050 and #N2410) and used according to manufacturer instructions.
To create the MiaPaCa-2 HiBit-KRAS^G12C cell line, CRISPR-Cas9 was used to insert the HiBit tag onto the N-terminus of one or more of the four endogenous KRAS^G12C alleles. After knock-in of the tag, individual clones were isolated by single cell dilution and screened for HiBit insertion by PCR. Clones containing the HiBit tag were sequenced and one was identified that contained the desired HiBit-KRAS^G12C sequence at one allele while the remaining three KRAS^G12C alleles were unaffected. This line was used for all subsequent studies.
Either SW1573 HiBit-KRas^G12C or MiaPaCa-2 HiBit-KRas^G12C cells were plated at 9000 cells/well in a 384 well plate (Corning #3770). Exemplary heterobifunctional molecules and positive controls were diluted in the appropriate cell media and applied to the plated cells resulting in a final concentration titration of 10 μM to 20 nM in either 0.1% or 0.5% dimethyl sulfoxide (DMSO). Gambogic acid was used as a positive control for cytotoxicity and titrated from 10 μM to 78 nM. All assays were performed in triplicate. Cells were treated with compounds for 24 hours at 37° C. in an incubator containing 5% CO2. Following treatment, alamar blue was used to determine if any compounds led to a loss in cell viability after 24 hours. The 10× alamar blue reagent was added to a final concentration of 1× as recommended by the manufacturer and cells were returned to the incubator for 4 hours. Plates were then allowed to equilibrate to room temperature and fluorescence was measured using a Perkin-Elmer EnVision. After completion of the fluorescence read, the liquid from each well was removed and the cells were washed with PBS. The Nano-Glo® HiBiT detection reagent was prepared according to the manufacturer's instructions and added to each well after the PBS wash was removed. Following incubation at room temperature for 45 minutes, the luminescence was read using the ultra-sensitive luminescence aperture on the Envision instrument.
Fluorescence values from the alamar blue treatment were normalized to the DMSO only control for each compound titration. We hypothesized that compounds that led to a ≥50% loss in cell viability of the KRAS-independent SW1573 HiBit-KRas^G12C cells were likely generally cytotoxic and loss of HiBit-KRAS^G12C signal from these compounds may be due to lower cell number and not specific KRAS^G12C degradation. These points were therefore excluded from the data analysis for degradation. […]

[3] = SW1573, SW1573 HiBit-KRas^G12C, 0.5% DMSO, read-out: KRas^G12C-HiBiT (SW1573; 0.5% DMSO) Dmax**
[4] = SW1573 HiBit-KRas^G12C, 0.1% DMSO, read-out: KRas^G12C-HIBit (SW1573; 0.1% DMSO) DC50*
[5] = 0.5% DMSO, read-out: KRas^G12C-HiBiT (MiaPaCa; 0.5% DMSO) DMax
[6] = read-out: KRas^G12C-HiBiT (SW1573; 0.5% DMSO) IC50***, SW1573 HiBit-KRas^G12C, 0.5% DMSO
[7] = read-out: KRas^G12C-HiBiT (MiaPaCa; 0.5% DMSO) IC50, 0.5% DMSO

Row | Dmax (HiBit-KRAS^G12C [1]; [3]) [%] | Dmax (HiBit-KRAS^G12C [2]; [5]) [%] | DC50 (HiBit-KRAS^G12C [1]; [6]) [nM] | DC50 (HiBit-KRAS^G12C [2]; [7]) [nM] | SMILES | also measured
1 | 35 to 70 | 35 to 70 |  |  | C=CC(=O)N1C[C@H](C)N(c2nc(OCCN3CCC(COCC(=O)N[C@H](C(=O)N4C[C@H](O)C[C@H]4C(=O)N[C@@H](C)c4ccc(-c5scnc5C)cc4)C(C)(C)C)CC3)nc3c(F)c(-c4cc(O)cc5ccccc45)c(Cl)cc23)C[C@H]1C [Compound 36, (2S,4R)-1-[(2S)-2-[2-({1-[2-({6-chloro-4-[(2S,5R)-2,5-dimethyl-4-(prop-2-enoyl)piperazin-1-yl]-8-fluoro-7-(3-hydroxynaphthalen-1-yl)quinazolin-2-yl}oxy)ethyl]piperidin-4-yl}methoxy)acetamido]-3,3-dimethylbutanoyl]-4-hydroxy-N-[(1S)-1-[4-(4-methyl-1,3-thiazol-5-yl)phenyl]ethyl]pyrrolidine-2-carboxamide] | Dmax (HiBit-KRAS^G12C [1]; SW1573, SW1573 HiBit-KRas^G12C, 0.1% DMSO, read-out: KRas^G12C-HiBit (SW1573; 0.1% DMSO) Dmax**): 35 to 70%; DC50 (HiBit-KRAS^G12C [1]; [4]): 100 to 1000 nM; Dmax (HiBit-KRAS^G12C [2]; 0.1% DMSO, read-out: KRas^G12C-HiBiT (MiaPaCa; 0.1% DMSO) DMax): < 35%
2 |  |  |  |  | C=CC(=O)N1CCN(c2nc(O[C@H](C)CN3CCC(CCCOC4CN(CC(=O)N[C@H](C(=O)N5C[C@H](O)C[C@H]5C(=O)N[C@@H](C)c5ccc(-c6scnc6C)cc5)C(C)(C)C)C4)CC3)nc3c(F)c(-c4cc(O)cc5ccccc45)c(Cl)cc23)CC1 [Compound 48, (2S,4R)-1-[(2S)-2-{2-[3-(3-{1-[(2R)-2-{[6-chloro-8-fluoro-7-(3-hydroxynaphthalen-1-yl)-4-[4-(prop-2-enoyl)piperazin-1-yl]quinazolin-2-yl]oxy}propyl]piperidin-4-yl}propoxy)azetidin-1-yl]acetamido}-3,3-dimethylbutanoyl]-4-hydroxy-N-[(1S)-1-[4-(4-methyl-1,3-thiazol-5-yl)phenyl]ethyl]pyrrolidine-2-carboxamide] | Dmax (HiBit-KRAS^G12C [1]; SW1573, read-out: KRas^G12C-HiBit (SW1573; 0.1% DMSO) Dmax**, SW1573 HiBit-KRas^G12C, 0.1% DMSO): < 35%; DC50 (HiBit-KRAS^G12C [1]; [4]): 100 to 1000 nM; DC50 (HiBit-KRAS^G12C [2]; read-out: KRas^G12C-HiBiT (MiaPaCa; 0.1% DMSO) IC50, 0.1% DMSO): > 1000 nM
3 |  |  | > 1000 | > 1000 | C=C(F)C(=O)N1CCN(c2nc(OCCN3CCC4(CC3)CN(c3cc([C@@H](C(=O)N5C[C@H](O)C[C@H]5C(=O)N[C@@H](C)c5ccc(-c6scnc6C)cc5)C(C)C)on3)C4)nc3c(F)c(-c4cc(O)cc5ccccc45)c(Cl)cc23)C[C@@H]1CC#N (atropisomer, axis not shown) [Compound 113, (2S,4R)-1-[(2S)-2-(3-{7-[2-({6-chloro-4-[(3S)-3-(cyanomethyl)-4-(2-fluoroprop-2-enoyl)piperazin-1-yl]-8-fluoro-7-(3-hydroxynaphthalen-1-yl)quinazolin-2-yl}oxy)ethyl]-2,7-diazaspiro[3.5]nonan-2-yl}-1,2-oxazol-5-yl)-3-methylbutanoyl]-4-hydroxy-N-[(1S)-1-[4-(4-methyl-1,3-thiazol-5-yl)phenyl]ethyl]pyrrolidine-2-carboxamide] | 
4 | > 70 | > 70 | 100 to 1000 | 100 to 1000 | C=CC(=O)N1CCN(c2nc(O[C@H](C)CN3CCC(COc4cc([C@H](C(=O)N5C[C@H](O)C[C@H]5C(=O)N[C@@H](C)c5ccc(-c6scnc6C)cc5)C(C)C)on4)CC3)nc3c(F)c(-c4cc(O)cc5ccccc45)c(Cl)cc23)C[C@@H]1CC#N [Compound 153, (2S,4R)-1-[(2R)-2-[3-({1-[(2R)-2-({6-chloro-4-[(3S)-3-(cyanomethyl)-4-(prop-2-enoyl)piperazin-1-yl]-8-fluoro-7-(3-hydroxynaphthalen-1-yl)quinazolin-2-yl}oxy)propyl]piperidin-4-yl}methoxy)-1,2-oxazol-5-yl]-3-methylbutanoyl]-4-hydroxy-N-[(1S)-1-[4-(4-methyl-1,3-thiazol-5-yl)phenyl]ethyl]pyrrolidine-2-carboxamide] | 
5 |  |  | > 1000 | > 1000 | C=CC(=O)N1CCN(c2nc(OCCN3CCC(C)(COc4cc([C@@H](C(=O)N5C[C@H](O)C[C@H]5C(=O)N[C@@H](C)c5ccc(-c6scnc6C)cc5)C(C)C)on4)CC3)nc3c(F)c(-c4cc(O)cc5ccccc45)c(Cl)cc23)C[C@@H]1CC#N [Compound 132, (2S,4R)-1-[(2S)-2-[3-({1-[2-({6-chloro-4-[(3S)-3-(cyanomethyl)-4-(prop-2-enoyl)piperazin-1-yl]-8-fluoro-7-(3-hydroxynaphthalen-1-yl)quinazolin-2-yl}oxy)ethyl]-4-methylpiperidin-4-yl}methoxy)-1,2-oxazol-5-yl]-3-methylbutanoyl]-4-hydroxy-N-[(1S)-1-[4-(4-methyl-1,3-thiazol-5-yl)phenyl]ethyl]pyrrolidine-2-carboxamide] | 
6 |  |  | > 1000 | > 1000 | C=C(F)C(=O)N1CCN(c2nc(OCCN3CCC(C)(COc4cc([C@@H](C(=O)N5C[C@H](O)C[C@H]5C(=O)N[C@@H](C)c5ccc(-c6scnc6C)cc5)C(C)C)on4)CC3)nc3c(F)c(-c4cc(O)cc5ccccc45)c(Cl)cc23)C[C@@H]1CC#N (atropisomer, axis not shown) [Compound 126, (2S,4R)-1-[(2S)-2-[3-({1-[2-({6-chloro-4-[(3S)-3-(cyanomethyl)-4-(2-fluoroprop-2-enoyl)piperazin-1-yl]-8-fluoro-7-(3-hydroxynaphthalen-1-yl)quinazolin-2-yl}oxy)ethyl]-4-methylpiperidin-4-yl}methoxy)-1,2-oxazol-5-yl]-3-methylbutanoyl]-4-hydroxy-N-[(1S)-1-[4-(4-methyl-1,3-thiazol-5-yl)phenyl]ethyl]pyrrolidine-2-carboxamide] | 

Row | SMILES | Dmax (HiBit-KRAS^G12C [1]; [3]) [%] | Dmax (HiBit-KRAS^G12C [2]; [5]) [%] | DC50 (HiBit-KRAS^G12C [1]; [6]) [nM] | DC50 (HiBit-KRAS^G12C [2]; [7]) [nM] | also measured
7 | C=C(F)C(=O)N1CCN(c2nc(OCCN3CCC(COCC(=O)N[C@H](C(=O)N4C[C@H](O)C[C@H]4C(=O)N[C@@H](C)c4ccc(-c5scnc5C)cc4)C(C)(C)C)CC3)nc3c(F)c(-c4cc(O)cc5ccccc45)c(Cl)cc23)C[C@@H]1CC#N (atropisomer, axis not shown) [Compound 151, (2S,4R)-1-[(2S)-2-[2-({1-[2-({6-chloro-4-[(3S)-3-(cyanomethyl)-4-(2-fluoroprop-2-enoyl)piperazin-1-yl]-8-fluoro-7-(3-hydroxynaphthalen-1-yl)quinazolin-2-yl}oxy)ethyl]piperidin-4-yl}methoxy)acetamido]-3,3-dimethylbutanoyl]-4-hydroxy-N-[(1S)-1-[4-(4-methyl-1,3-thiazol-5-yl)phenyl]ethyl]pyrrolidine-2-carboxamide] | > 70 | > 70 | < 100 |  | 
